Reference: patent publication US4049696A, “3-((4-(2,2-Dichloro-1,1-difluoroethoxy)phenyl)sulfonyl)-2-propenenitrile” (The Dow Chemical Company, priority 1977, dated 1977)
≈ marks a conversion by molar mass, not a printed value.

Tests used:
Format in all cases: cell-based
P. aeruginosa = test: in vitro agar Petri dish dilution test, P. aeruginosa; conditions: Pseudomonas aeruginosa, 100% growth inhibition
Source text: (§1) The compound has antimicrobial utility.

S. aureus = test: in vitro agar Petri dish dilution test, S. aureus; conditions: Staphylococcus aureus, 100% growth inhibition
Source text: as §1

C. albicans = test: in vitro agar Petri dish dilution test, C. albicans; conditions: Candida albicans, 100% growth inhibition
Source text: as §1

T. mentagrophytes = test: in vitro agar Petri dish dilution test, T. mentagrophytes; conditions: Trichophyton mentagrophytes, 100% growth inhibition
Source text: as §1

[1] = system: K. pneumoniae M-1 Midland Hospital; test: in vitro agar Petri dish dilution test, K. pneumoniae M-1 Midland Hospital; conditions: Klebsiella pneumoniae, 100% growth inhibition
Source text: as §1

P. chrysogenum = test: in vitro agar Petri dish dilution test, P. chrysogenum; conditions: Penicillium chrysogenum, 100% growth inhibition
Source text: as §1

A. niger = test: in vitro agar Petri dish dilution test, A. niger; conditions: Aspergillus niger, 100% growth inhibition
Source text: as §1

B. subtilis = test: in vitro agar Petri dish dilution test, B. subtilis; conditions: Bacillus subtilis, 100% growth inhibition
Source text: as §1

C. pelliculosa = test: in vitro agar Petri dish dilution test, C. pelliculosa; conditions: Hansenula anomala, 100% growth inhibition
Source text: as §1

P. pullulans = test: in vitro agar Petri dish dilution test, P. pullulans; conditions: 100% growth inhibition
Source text: as §1

[2] = system: Trichoderm Sp. Madison P-42; test: in vitro agar Petri dish dilution test, Trichoderm Sp. Madison P-42; conditions: 100% growth inhibition
Source text: as §1

S. marcescens NIH = test: in vitro agar Petri dish dilution test, S. marcescens NIH; conditions: Serratia marcescens, 100% growth inhibition
Source text: as §1

Torulopsis Species = test: in vitro agar Petri dish dilution test, Torulopsis Species; conditions: 100% growth inhibition
Source text: as §1

A. fumigatus = test: in vitro agar Petri dish dilution test, A. fumigatus; conditions: Aspergillus fumigatus, 100% growth inhibition
Source text: as §1

C. albicans NIH = test: in vitro agar Petri dish dilution test, C. albicans NIH; conditions: Candida albicans, 100% growth inhibition
Source text: as §1

E. coli ATCC 11229 = test: in vitro agar Petri dish dilution test, E. coli ATCC 11229; conditions: Escherichia coli, ATCC11229, 100% growth inhibition
Source text: as §1

N#CC=CS(=O)(=O)c1ccc(OC(F)(F)C(Cl)Cl)cc1 [3-((4-(2,2-Dichloro-1,1-difluoroethoxy)phenyl)sulfonyl)-2-propenenitrile]
MIC (P. aeruginosa): 100 µg/mL (≈ 292 µM)
MIC (S. aureus): 5 µg/mL (≈ 14.6 µM)
MIC (C. albicans): 50 µg/mL (≈ 146 µM)
MIC (T. mentagrophytes): 10 µg/mL (≈ 29.2 µM)
MIC [1]: 100 µg/mL (≈ 292 µM)
MIC (P. chrysogenum): 10 µg/mL (≈ 29.2 µM)
MIC (A. niger): 10 µg/mL (≈ 29.2 µM)
MIC (B. subtilis): 1 µg/mL (≈ 2.92 µM)
MIC (C. pelliculosa): 10 µg/mL (≈ 29.2 µM)
MIC (P. pullulans): 50 µg/mL (≈ 146 µM)
MIC [2]: 100 µg/mL (≈ 292 µM)
MIC (S. marcescens NIH): 50 µg/mL (≈ 146 µM)
MIC (Torulopsis Species): 50 µg/mL (≈ 146 µM)
MIC (A. fumigatus): 50 µg/mL (≈ 146 µM)
MIC (C. albicans NIH): 50 µg/mL (≈ 146 µM)
MIC (E. coli ATCC 11229): 50 µg/mL (≈ 146 µM)
